How the values were obtained:
Type in all cases: physicochemical
[1] = Saturated solubility in different solvent systems
[2] = Determination of pKa from saturated solubility at different pH
Procedure: The pKa of the weakly acidic drug is determined from pH-solubility data using the equation provided below.
Where Cs=observed solubility and C0=intrinsic solubility of the compound,
Since the drug is weakly acidic, its intrinsic solubility is assumed to be the solubility at a very low pH (pH=4) where the contribution due to ionization is minimal.

[3] = Octanol-water partition coefficient; settings: 25° C., n-octanol and HPLC water, triplicate; pH of the aqueous phase 8.1
Procedure: The octanol-water partition coefficient of the drug is determined at 25° C. Equal volumes (10 ml) saturated solution of ON.1210.Na in n-octanol and HPLC water are equilibrated at 25° C. in a shaking water bath for 48 hours. The pH of the aqueous phase is also determined. At a predetermined time, a known volume of both the organic and aqueous phase is collected via a filtered needle. Subsequently, the concentration of ON.1210.Na is determined by HPLC after adequate dilution.
The octanol-water partition coefficient of the drug is determined at 25° C. using equal volumes (10 ml) of saturated solution of ON.1210.Na in n-octanol and HPLC water. Similarly, the partition coefficient is determined using simulated gastric and intestinal fluid without enzymes. The octanol-water partition coefficient is determined using the following equation: […]

[4] = Forced degradation studies (HPLC)
Procedure: In order to establish the specificity of this assay procedure several forced degradation studies were conducted as follows:
The ON.1210.Na sample is prepared in HPLC grade water at a concentration of 200 μg/mL. All the peaks detected in the chromatogram at time zero are noted with their corresponding retention time and absolute peak areas. The solution is crimped into a 5 mL glass vial and autoclaved. After autoclaving, the sample is filtered through a 0.1μ filter and 20 μL of the filtered sample is analyzed. The absolute peak area of the peak after autoclaving and appearance of any additional peaks due to possible degradation is shown in Table 9.
One ml of the 500 μg/mL standard solution is mixed with 1 mL of 0.1 N HCl. The sample is cloudy in appearance and filtered prior to HPLC analysis. All the peaks detected in the chromatogram at time zero are noted with their corresponding retention time and absolute peak areas. The solution is crimped into a 5 mL glass vial and autoclaved. After autoclaving, the sample is filtered through a 0.1μ filter and […] of the filtered sample is analyzed by HPLC. The absolute peak areas of the peak after autoclaving, and appearance of any other peaks due to possible degradation are noted.
One ml of the 500 μg/mL standard solution is mixed with 1 mL of 0.1 N NaOH. The sample is clear in appearance. All the peaks detected in the chromatogram at time zero are noted with their corresponding retention time and absolute peak area. The solution is crimped into a 5 mL glass vial and autoclaved. After autoclaving, the sample is filtered through a 0.1μ filter and 20 μL of the filtered sample is analyzed. The absolute peak area of the peaks after autoclaving and appearance of any other peaks due to possible degradation are noted.
A solid drug sample (ON1210), after autoclaving in a crimped vial, is also evaluated for any degradation using the developed HPLC method. The sample, after autoclaving, is used to make a standard solution of 400 μg/mL and injected onto HPLC.
In this study, 30% of the hydrogen peroxide is diluted to 3% (v/v) with water. One ml of the 500 μg/mL standard solution is mixed with 1 mL of 3% hydrogen peroxide; then incubated at 50° C. over a period of two hours. All the peaks detected in the chromatogram at different time points are noted with their corresponding retention time and absolute peak areas. The chromatograms are run for 30 minute periods.

With `O=C([O-])c1ccc(/C=C/S(=O)(=O)Cc2ccc(Cl)cc2)cc1.[Na+]` [ON.1210.Na, (E)-4-Carboxystyryl-4-chlorobenzylsulfone, Sodium Salt] the Solubility ([1]; 0.25% Tween 80 in phosphate buffer, pH of solution 8.45) was 9500 µg/mL, the Solubility ([1]; 0.5% Tween 80 in phosphate buffer, pH of solution 8.41) was 9800 µg/mL and the Solubility ([1]; 1% Tween 80 in phosphate buffer, pH of solution 8.45) was 8900 µg/mL. For the same compound, the Solubility ([1]; 2% Tween 80 in phosphate buffer, pH of solution 8.39) was 9700 µg/mL, the Solubility ([1]; 2% tween 80 in water, pH of solution 8.78) was 9000 µg/mL and the Solubility ([1]; 10% cyclodextran, 24 hours of equilibration, pH of solution 8.14) was 46000 µg/mL. For the same compound, the Solubility ([1]; 10% cyclodextran, 48 hours of equilibration, pH of solution 8.41) was 41000 µg/mL, the Solubility ([1]; 50% PEG400:water, pH of solution 7.53) was 40000 µg/mL and the Solubility ([1]; 50:50 PEG400:ethanol, pH of solution 8.46) was 37000 µg/mL. For the same compound, the Solubility ([1]; PEG300 (IP10 g/kg), pH of solution 8.21) was 52040 µg/mL, the Solubility ([2]; aqueous buffer, thermodynamic from solid, assumed to be the solubility at pH 4, read-out: intrinsic solubility) was 0.154 µg/mL and the pKa ([2]; calculated from solubility at pH 5) was 2.61. For the same compound, the pKa ([2]; calculated from solubility at pH 6) was 2.33, the pKa ([2]; calculated from solubility at pH 7.4) was 2.54 and the pKa ([2]; calculated from solubility at pH 8) was 2.96. For the same compound, the pKa ([2]; calculated from solubility at pH 9) was 3.82, the “octanol:water partition coefficient” value [3] was 1.28-2.87 and the “stability of the aqueous solution on autoclaving” value ([4]; 200 μg/mL in water) was “stable under autoclaving conditions”. The “degradation under alkaline condition” value ([4]; 0.05N NaOH, autoclaving) was “Significantly more degradation is present under alkaline condition”, the degradation upon autoclaving ([4]; in presence of strong acid (0.05N HCl)) was “less than 10%” and the “stability of the solid on autoclaving” value ([4]; solid drug autoclaved in a crimped vial, then 400 μg/mL by HPLC) was “stable under the autoclaving conditions”.

From US20110028504A1, “Formulation of radioprotective alpha beta unsaturated aryl sulfones” (ONCONOVA THERAPEUTICS, INC., priority 2005, published 2011)
